In patent publication US8871210B2, “Chemokine receptor antagonists and use thereof” (Ono Pharmaceutical Co., Ltd., priority 2005, dated 2014):

Biological target: T1, CXCR4 (Homo sapiens, UniProt P61073)
T1 construct: a human T cell strain in which CXCR4 is known to be expressed; endogenous in cells; host or cells: CEM cells (human T cell strain)
Assay: Inhibition of binding of human 125I-SDF-1 to CEM cells
Conditions: 125I-SDF-1, human T cell strain CEM cells, 4° C., 60 minutes
Source text: Specifically, as a system of screening a compound that inhibits the binding between SDF-1 and CXCR4, for example a system of measuring the binding between iodine-labeled SDF-1 and a human T cell strain in which CXCR4 is known to be expressed is operable. The identical idea is possible since macrophage (R5) HIV and RANTES, MIP-1α, and MIP-1β all bind to CCR5.
Study for Inhibition of Binding Human SDF-1 to CEM Cells
To human T cell strain CEM cells in a binding buffer (containing HEPES and BSA), the test compound and ^125I-SDF-1 (NEN) were added and the mixture was incubated at 4° C. for 60 minutes. The reacted CEM cells were rapidly filtrated with a GF/B membrane filter plate (Packard) to adsorb. The plate was washed with PBS three times and then dried. Microscint+20 (Packard) was added thereto. An amount of the radioactivity bound to the CEM cells was measured using Top Count (Packard) and inhibition (%) of the test compound was calculated according to the following equation: Inhibition={(Et−Ea)/(Et−Ec)}×100
Et: amount of radioactivity when the test compound is not added,
Ec: amount of radioactivity when non-radioactive SDF-1 (Pepro Tech) is added in an amount of 1000 times as much as ^125I-SDF-1 as a test compound, and
Ea: amount of radioactivity when the test compound is added.

T1 sequence (P61073 whole entry): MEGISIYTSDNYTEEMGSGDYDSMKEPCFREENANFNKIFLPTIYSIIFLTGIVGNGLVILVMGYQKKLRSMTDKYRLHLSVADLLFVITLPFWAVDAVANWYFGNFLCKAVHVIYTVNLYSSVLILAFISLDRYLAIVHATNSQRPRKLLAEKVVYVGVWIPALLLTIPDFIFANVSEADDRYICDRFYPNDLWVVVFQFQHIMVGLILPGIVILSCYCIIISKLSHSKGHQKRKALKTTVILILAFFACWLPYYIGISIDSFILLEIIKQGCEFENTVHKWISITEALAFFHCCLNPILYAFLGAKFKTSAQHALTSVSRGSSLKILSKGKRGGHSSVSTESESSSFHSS

IC50: 0.011 µM
SMILES: Cc1ccsc1CN1CCC2(CC1)CCN(Cc1ccc(C(=O)C(Cc3ncc[nH]3)Cc3ncc[nH]3)cc1)C2 [compound 14, 3-(1H-imidazol-2-yl)-2-(1H-imidazol-2-ylmethyl)-1-[4-({8-[(3-methyl-2-thienyl)methyl]-2,8-diazaspiro[4.5]dec-2-yl}methyl)phenyl]propan-1-one]
